Measured values: ChEMBL document CHEMBL4266016, “Synthesis, Racemic X-ray Crystallographic, and Permeability Studies of Bioactive Orbitides from Jatropha Species” (J Nat Prod, 2018)
Square brackets hold non-standard residues; d marks the D form. Peptide text beside a SMILES is read from it. NMeF = CN[C@@H](Cc1ccccc1)C(=O)O; NMeI = CC[C@H](C)[C@H](NC)C(=O)O; NMeL = CN[C@@H](CC(C)C)C(=O)O; NMeS = CN[C@@H](CO)C(=O)O; Sar = CNCC(=O)O

What was measured:
[1] = Apparent permeability of the compound at 50 uM after 5 hrs by PAMPA; assay type: ADME
[2] = Apparent permeability across human Caco2 cells at 50 uM after 90 mins by LC-MS analysis; assay type: ADME, cell-based; conditions: caco-2, 1.5 h
Caco-2 = test: Cytotoxicity against human Caco2 cells at 0.5 to 64 uM after 2 hrs by resazurin dye based fluorescence assay; assay type: cell-based; conditions: caco-2, 2 h
[3] = Inhibition of porcine pepsin using EDANS-DABCYL as substrate pretreated for 5 mins followed by substrate addition measured for 5 mins by spectrophotometric method; design: species or system Sus scrofa

SMILES	Papp [1]	Papp [2]	IC50 [3] [nM]	Activity (Caco-2)
CC[C@H](C)[C@@H]1NC(=O)[C@H]([C@@H](C)O)NC(=O)CN(C)C(=O)CNC(=O)[C@H](Cc2ccccc2)NC(=O)CNC(=O)[C@H](Cc2ccccc2)N(C)C(=O)[C@H]([C@@H](C)CC)N(C)C1=O (cyclo(FG[Sar]TI[NMeI][NMeF]G))	Impermeable	Impermeable		
CC[C@H](C)[C@@H]1NC(=O)CNC(=O)[C@H](CC(C)C)NC(=O)[C@H]([C@@H](C)CC)NC(=O)[C@H]([C@@H](C)CC)NC(=O)[C@H](CO)N(C)C(=O)CNC(=O)[C@H](CC(C)C)NC1=O (cyclo(GILG[NMeS]IIL))	Impermeable	Impermeable		
CC[C@H](C)[C@@H]1NC(=O)CNC(=O)[C@H](CC(C)C)NC(=O)[C@H]([C@@H](C)CC)NC(=O)[C@H]([C@@H](C)CC)NC(=O)[C@H](CO)NC(=O)CN(C)C(=O)[C@H](CC(C)C)NC1=O (cyclo(GIL[Sar]SIIL))	Impermeable	Impermeable		
CC(C)C[C@@H]1NC(=O)CNC(=O)[C@@H]2CCCN2C(=O)CNC(=O)[C@H](Cc2c[nH]c3ccccc23)NC(=O)[C@H](CC(C)C)NC(=O)[C@H](CC(N)=O)NC(=O)[C@H](CC(C)C)NC1=O (cyclo(GLLNLWGP))	Impermeable	Impermeable	900	Non-Toxic

Continued, in another order:

Papp [1]	Papp [2]	IC50 [3] [nM]	SMILES	Activity (Caco-2)
Impermeable	Impermeable		CC[C@H](C)[C@@H]1NC(=O)[C@H]([C@@H](C)O)NC(=O)CNC(=O)CNC(=O)[C@H](Cc2ccccc2)NC(=O)CNC(=O)[C@H](Cc2ccccc2)NC(=O)[C@H]([C@@H](C)CC)NC1=O (cyclo(FGFGGTII))	Non-Toxic
Impermeable	Impermeable		CC[C@H](C)[C@@H]1NC(=O)[C@H]([C@@H](C)O)NC(=O)CN(C)C(=O)CNC(=O)[C@H](Cc2ccccc2)NC(=O)CNC(=O)[C@H](Cc2ccccc2)N(C)C(=O)[C@H]([C@@H](C)CC)NC1=O (cyclo(FG[Sar]TII[NMeF]G))	
Impermeable	Impermeable		CC[C@H](C)[C@@H]1NC(=O)[C@H]([C@@H](C)O)NC(=O)CN(C)C(=O)CN(C)C(=O)[C@H](Cc2ccccc2)NC(=O)CN(C)C(=O)[C@H](Cc2ccccc2)N(C)C(=O)[C@H]([C@@H](C)CC)NC1=O (cyclo(F[Sar][Sar]TII[NMeF][Sar]))	
Impermeable	Impermeable		CC[C@H](C)[C@@H]1NC(=O)CNC(=O)[C@H](CC(C)C)NC(=O)[C@H]([C@@H](C)CC)NC(=O)[C@H]([C@@H](C)CC)NC(=O)[C@H](CO)NC(=O)CNC(=O)[C@H](CC(C)C)NC1=O (cyclo(GILGSIIL))	Non-Toxic
Impermeable	Impermeable		CC[C@H](C)[C@@H]1NC(=O)CNC(=O)[C@H](CC(C)C)NC(=O)[C@H]([C@@H](C)CC)NC(=O)[C@H]([C@@H](C)CC)NC(=O)[C@H](CO)N(C)C(=O)CN(C)C(=O)[C@H](CC(C)C)NC1=O (cyclo(GIL[Sar][NMeS]IIL))	
Permeable	Impermeable		CC[C@H](C)[C@@H]1NC(=O)[C@H]([C@@H](C)CC)N(C)C(=O)[C@H](CO)NC(=O)CN(C)C(=O)[C@H](CC(C)C)N(C)C(=O)[C@H]([C@@H](C)CC)NC(=O)CN(C)C(=O)[C@H](CC(C)C)NC1=O (cyclo(IL[Sar]I[NMeL][Sar]S[NMeI]))	
